Assay results taken from patent publication US6653301B2, “Pyrazole compounds useful as protein kinase inhibitors” (Vertex Pharmaceuticals Incorporated, priority 2000, dated 2003).

Q: With `COc1cccc(Nc2nc(Nc3cc(C)n[nH]3)c3ccccc3n2)c1` [IIc-56, [2-(3-Methoxyphenylamino)-quinazolin-4-yl]-(5-methyl-2H-pyrazol-3-yl)-amine] as the molecule, how does the melting point read?
A: 212 to 215 °C
